In brackets after ≈: the same amount, converted by molar mass.
Columns and labels:
S. aureus ATCC 13709 = experiment: MIC, S. aureus ATCC 13709; type: cell-based; conditions: S. aureus; Alamar Blue read after overnight incubation at 35° C.
E. coli ATCC 25922 = experiment: MIC, E. coli ATCC 25922; type: cell-based; conditions: E. coli; Alamar Blue read after overnight incubation at 35° C.

SMILES | MIC Sa (S. aureus ATCC 13709) [µg/mL] | MIC Ec (E. coli ATCC 25922) [µg/mL]
CNc1cc(F)cc2c1[nH]c1nc(Oc3cnc(C)nc3)nc(N3C[C@H](N)C[C@@H]3C)c12 [Compound 4.115] | 1 (≈ 2.37 µM) | 8 (≈ 18.9 µM)
CNc1cc(F)cc2c1[nH]c1nc(Oc3cnc(C)nc3)nc(N3CC4CCNC4(C)C3)c12 (centres unmarked) [Compound 4.116] | ≤0.5 | ≤0.5
CNc1cc(F)cc2c1[nH]c1nc(Oc3cnc(C)nc3)nc(N3CC4CONC4C3)c12 (centres unmarked) [Compound 4.122] | ≤0.5 | 1 (≈ 2.29 µM)
CNc1cc(F)cc2c1[nH]c1nc(Oc3cnc(C)nc3)nc(N3CCC4(CNC4)C3)c12 [Compound 4.125] | ≤0.5 | 4 (≈ 9.21 µM)
CNc1cc(F)cc2c1[nH]c1nc(Oc3cnc(C)nc3)nc(N3CCC4(CCNC4)C3)c12 (centres unmarked) [Compound 4.126] | ≤0.5 | 2 (≈ 4.46 µM)
CNc1cc(F)cc2c1[nH]c1nc(Oc3cnc(C)nc3)nc(N(C)C3CNC3)c12 [Compound 4.134] | >16 | >16
CNc1cc(F)cc2c1[nH]c1nc(Oc3cnc(C)nc3)nc(N3CCC(C)(N)CC3)c12 [Compound 4.135] | ≤0.5 | 1 (≈ 2.29 µM)
CNc1cc(F)cc2c1[nH]c1nc(Oc3cnc(C)nc3)nc(N3CC(N)C3)c12 [Compound 4.138] | ≤0.5 | ≤0.5
CNc1cc(F)cc2c1[nH]c1nc(Oc3cnc(C)nc3)nc(N3CCC4(CCC4N)CC3)c12 (centres unmarked) [Compound 4.139] | ≤0.5 | ≤0.5
CNc1cc(F)cc2c1[nH]c1nc(Oc3cnc(C)nc3)nc(N3CC(CN)C3)c12 [Compound 4.143] | ≤0.5 | 2 (≈ 4.9 µM)
CNc1cc(F)cc2c1[nH]c1nc(Oc3cnc(C)nc3)nc(N3CC4CC(N)C3C4)c12 (centres unmarked) [Compound 4.148] | ≤0.5 | 4 (≈ 9.21 µM)
CNc1cc(F)cc2c1[nH]c1nc(Oc3cnc(C)nc3)nc(N3CC4(CCCNC4)C3)c12 [Compound 4.149] | ≤0.5 | 2 (≈ 4.46 µM)
CNc1cc(F)cc2c1[nH]c1nc(Oc3cnc(C)nc3)nc(N3CCC(N)C(C)(C)C3)c12 (centres unmarked) [Compound 4.152] | ≤0.5 | 1 (≈ 2.22 µM)
CNc1cc(F)cc2c1[nH]c1nc(Oc3cnc(C)nc3)nc(N3CC4(CC(N)C4)C3)c12 [Compound 4.153] | ≤0.5 | 2 (≈ 4.6 µM)
CNc1cc(F)cc2c1[nH]c1nc(Oc3cnc(C)nc3)nc(N3CC4CCNC4C3)c12 (centres unmarked) [Compound 4.156] | ≤0.5 | ≤0.5
CNc1cc(F)cc2c1[nH]c1nc(Oc3cnc(C)nc3)nc(N3CC(N4CC(N)C4)C3)c12 [Compound 4.158] | ≤0.5 | 4 (≈ 8.9 µM)
CNc1cc(F)cc2c1[nH]c1nc(Oc3cnc(C)nc3)nc(N3CCC(F)(CN)CC3)c12 [Compound 4.159] | ≤0.5 | ≤0.5
CNc1cc(F)cc2c1[nH]c1nc(Oc3cnc(C)nc3)nc(-c3ccc(Cl)cc3N)c12 [Compound 4.161] | ≤0.5 | ≤0.5
CNc1cc(F)cc2c1[nH]c1nc(Oc3cnc(C)nc3)nc(C3=CCNCC3)c12 [Compound 4.162] | 8 (≈ 19.7 µM) | >16
CNc1cc(F)cc2c1[nH]c1nc(Oc3cnc(C)nc3)nc(N3CCNCC3)c12 [Compound 4.163] | ≤0.5 | ≤0.5
CNc1cc(F)cc2c1[nH]c1nc(Oc3cncc(OC)c3)nc(N3CC4C(N)C4C3)c12 (centres unmarked) [Compound 4.164] | ≤0.5 | 1 (≈ 2.3 µM)
CNc1cc(F)cc2c1[nH]c1nc(Oc3cncc(OC)c3)nc(N3CC4CC(N)C4C3)c12 (centres unmarked) [Compound 4.167] | ≤0.5 | ≤0.5
CNc1cc(F)cc2c1[nH]c1nc(Oc3cncc(-c4nnnn4C)c3)nc(N3CC4C(N)C4C3)c12 (centres unmarked) [Compound 4.168] | ≤0.5 | 2 (≈ 4.1 µM)
CNc1cc(F)cc2c1[nH]c1nc(Oc3cncc(-c4nnnn4C)c3)nc(N3CCC(N)C3)c12 (centres unmarked) [Compound 4.169] | 2 (≈ 4.21 µM) | 8 (≈ 16.8 µM)
CNc1cc(F)cc2c1[nH]c1nc(Oc3cncc(-c4nnnn4C)c3)nc(N3CC4C[C@@H](N)C4C3)c12 (some centres unmarked) [Compound 4.171] | ≤0.5 | 4 (≈ 7.98 µM)

SMILES | MIC Sa (S. aureus ATCC 13709) [µg/mL] | MIC Ec (E. coli ATCC 25922) [µg/mL]
CNc1cc(F)cc2c1[nH]c1nc(Oc3cnc(N)nc3)nc(N3CC4C(N)C4C3)c12 (centres unmarked) [Compound 4.172] | ≤0.5 | ≤0.5
CNc1cc(F)cc2c1[nH]c1nc(Oc3cnc(N)nc3)nc(N3CCC4(CC4N)C3)c12 (centres unmarked) [Compound 4.173] | ≤0.5 | 1 (≈ 2.3 µM)
CNc1cc(F)cc2c1[nH]c1nc(Oc3cnc(N)nc3)nc(N3CCC4(C[C@H]4N)C3)c12 (some centres unmarked) [Compound 4.174] | ≤0.5 | ≤0.5
CNc1cc(F)cc2c1[nH]c1nc(Oc3cnc(N)nc3)nc(N3CCC(CN)C3)c12 (centres unmarked) [Compound 4.176] | ≤0.5 | 1 (≈ 2.36 µM)
CNc1cc(F)cc2c1[nH]c1nc(Oc3cnc(N)nc3)nc(N3CC(N)C4(CC4)C3)c12 (centres unmarked) [Compound 4.177] | ≤0.5 | ≤0.5
CNc1cc(F)cc2c1[nH]c1nc(Oc3cnc(N)nc3)nc(N3CC4CNC4C3)c12 (centres unmarked) [Compound 4.178] | ≤0.5 | 8 (≈ 19 µM)
CNc1cc(F)cc2c1[nH]c1nc(Oc3cnc(N)nc3)nc(N3CCC(N)C3)c12 (centres unmarked) [Compound 4.179] | ≤0.5 | 1 (≈ 2.44 µM)
CNc1cc(F)cc2c1[nH]c1nc(Oc3cnc(N)nc3)nc(N3CCCC(N)C3)c12 (centres unmarked) [Compound 4.180] | 1 (≈ 2.36 µM) | 8 (≈ 18.9 µM)
CNc1cc(F)cc2c1[nH]c1nc(Oc3cnc(N)nc3)nc(N3CC(NC(=O)CN)C4(CC4)C3)c12 (centres unmarked) [Compound 4.182] | 2 (≈ 4.06 µM) | 16 (≈ 32.5 µM)
CNc1cc(F)cc2c1[nH]c1nc(Oc3cnc(N)nc3)nc(N3C4CCC3CC(N)C4)c12 (centres unmarked) [Compound 4.183] | 1 (≈ 2.22 µM) | 8 (≈ 17.8 µM)
CNc1cc(F)cc2c1[nH]c1nc(Oc3cnc(N)nc3)nc(N3CC4CC(N)C4C3)c12 (centres unmarked) [Compound 4.184] | ≤0.5 | 1 (≈ 2.3 µM)
CNc1cc(F)cc2c1[nH]c1nc(Oc3cnc(N)nc3)nc(N3CC4CC4(CN)C3)c12 (centres unmarked) [Compound 4.185] | ≤0.5 | 8 (≈ 18.4 µM)
CNc1cc(F)cc2c1[nH]c1nc(Oc3cnc(N)nc3)nc(N3CC4CCNC4C3)c12 (centres unmarked) [Compound 4.187] | ≤0.5 | 2 (≈ 4.59 µM)
CNc1cc(F)cc2c1[nH]c1nc(Oc3cnc(N)nc3)nc(N3CC4C(CN)C4C3)c12 (centres unmarked) [Compound 4.188] | ≤0.5 | 8 (≈ 18.4 µM)
CNc1cc(F)cc2c1[nH]c1nc(Oc3cnc(N)nc3)nc(N3CC4CCC(N)C4C3)c12 (centres unmarked) [Compound 4.189] | ≤0.5 | 2 (≈ 4.45 µM)
CNc1cc(F)cc2c1[nH]c1nc(Oc3cnc(N)nc3)nc(N3CC4CC(N)C4C3)c12 (centres unmarked) [Compound 4.190] | ≤0.5 | 1 (≈ 2.3 µM)
CNc1cc(F)cc2c1[nH]c1nc(Oc3cnc(SC)nc3)nc(N3CC4C(N)C4C3)c12 (centres unmarked) [Compound 4.193] | ≤0.5 | ≤0.5
CNc1cc(F)cc2c1[nH]c1nc(Oc3cnc(SC)nc3)nc(N3CCC4(CC4N)C3)c12 (centres unmarked) [Compound 4.195] | ≤0.5 | 1 (≈ 2.14 µM)
CNc1cc(F)cc2c1[nH]c1nc(Oc3cnc(SC)nc3)nc(N3CC4CC(N)C4C3)c12 (centres unmarked) [Compound 4.196] | ≤0.5 | ≤0.5
CNc1cc(F)cc2c1[nH]c1nc(Oc3cnc(SC)nc3)nc(N3CC4C(CN)C4C3)c12 (centres unmarked) [Compound 4.197] | ≤0.5 | ≤0.5
CNc1cc(F)cc2c1[nH]c1nc(Oc3cnc(SC)nc3)nc(N3CC4CCNC4C3)c12 (centres unmarked) [Compound 4.198] | ≤0.5 | ≤0.5
CNc1cc(F)cc2c1[nH]c1nc(Oc3cnc(SC)nc3)nc(N3CCC(N)C3)c12 (centres unmarked) [Compound 4.199] | ≤0.5 | ≤0.5
CNc1cc(F)cc2c1[nH]c1nc(Oc3cnc(SC)nc3)nc(N3CC4CCC(N)C4C3)c12 (centres unmarked) [Compound 4.200] | ≤0.5 | ≤0.5
CNc1cc(F)cc2c1[nH]c1nc(Oc3cnc(SC)nc3)nc(N3CC4CC(N)C4C3)c12 (centres unmarked) [Compound 4.201] | ≤0.5 | ≤0.5
